Results taken from PubChem BioAssay (NCI).
Values joined by “and” are separate entries in the source; they are usually repeats but may differ in a detail not shown here. Equal values may be shown once.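 Exposure lasted 48 hours, with cells grown in 96-well plates and compounds tested at five concentrations. GI50 is the concentration that inhibits growth by half. Definition used: TGI = concentration required for complete inhibition of growth.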

What follows are molecules tested on XF 498 CNS (assay: NCI-60 cell line screen, 48 h).

Compound | TGI | GI50
O=C1/C(=C/c2ccc(O)c(O)c2)CCC/C1=C\c1ccc(O)c(O)c1 | 9.93 µM | 
Cc1c(C(=O)C/C(=N/NC(=O)c2ccccc2O)C(=O)Nc2ccccc2C(C)C)[n+](=O)c2ccccc2n1[O-] | > 100 µM | 
CCCC1C(=O)CCc2c(OC)ccc(OC)c21 (stereo not drawn) | > 100 µM | 
O=C(CCc1nc(=S)[nH][nH]1)Nc1cc(Cl)c(Cl)cc1Cl | > 100 µM | 
O=C(Nc1nc2ccc([N+](=O)[O-])cc2s1)C(=O)C(C1OC(=O)c2ccccc21)[N+](=O)[O-] (stereo not drawn) | > 100 µM | 
O=C(CCc1nc(=S)[nH][nH]1)Nc1ccc(Cl)c(Cl)c1 | > 100 µM | 
COC(=O)C1(C(C)C)CCc2c(OC)ccc(OC)c2C1=O (stereo not drawn) | > 100 µM | 
O=C(Nc1ccccc1)c1c(O)[nH]c(=S)[nH]c1=O | 19.5 µM and 155 µM | 8.86 µM and 61.7 µM
COC(=O)c1ccccc1NC(=O)C(=O)Cc1nc2c3c(ccc2[nH]c1=O)C(=O)c1ccccc1C3=O | 91.7 µM | 
O=C(CC(=O)c1cccc2ccccc12)C(=O)Nc1ccc(Cl)cc1 | > 100 µM | 
CC1(C(=O)O)CCC[C@@]2(C)C1CC[C@@]1(C)c3cocc3CCC21 (stereo partly drawn) | > 100 µM | 
CCn1c(C)nn2c(=O)c3ccccc3nc2c1=O | > 100 µM | 
CCOC(=O)CCC1(C(=O)OCC)CCCCC1=O (stereo not drawn) | > 100 µM | 
CCN(CC)CCSc1c2ccccc2nc2cc(NCC(=O)Nc3ccccc3-c3ccccc3NC(=O)CNc3ccc4c(SCCN(CC)CC)c5ccccc5nc4c3)ccc12 | > 100 µM | 
Cc1cc(N(CCC#N)CCC#N)ccc1N=Nc1ccc(S(N)(=O)=O)cc1 | > 100 µM | 
CC1(C)C(=O)/C=C\C(=O)C(C)(C)C2=CC=C(O2)C(C)(C)C(=O)/C=C\C(=O)C(C)(C)C2=CC=C1O2 | > 100 µM | 
NC(=O)NO.O.O.O.O.O.O.O.O.O.O.O.[Ge].[Ge].[Ge].[Ge].[Ge].[O]=[Ge].[O]=[Ge].[O]=[Ge].[O]=[Ge].[O]=[Ge][OH] | > 100 µM | 
CCC[CH2][Sn]([CH2]CCC)([S]c1cccc2cccnc12)[S]c1cccc2cccnc12 | 0.26 µM | 0.101 µM
OCC1=CC(NC2CC(CO)C(O)C(O)C2O)C(O)C(O)C1O (stereo not drawn) | > 100 µM | 
Nc1ccccc1S(=O)(=O)N(CC(=O)O)c1ccccc1 | > 100 µM | 
CCOC(=O)C(C)(C)Oc1ccc2c(-c3ccccc3)cc(=O)oc2c1 | 47.9 µM | 
CNS(=O)(=O)NNS(=O)(=O)c1ccccc1 | > 100 µM | 
Cc1cc(NS(=O)(=O)c2ccc(Nc3c4ccccc4nc4c(C(=O)N5CCN(CCOS(C)(=O)=O)CC5)cccc34)cc2)no1 | > 100 µM | 
O=C(O)CCC(NC(=O)c1ccc(Nc2nc3ccccc3nc2-c2cccs2)cc1)C(=O)O (stereo not drawn) | > 100 µM | 
NC1=NCCC1(c1ccccc1)c1ccccn1 (stereo not drawn) | > 100 µM | 
CNC(=S)OCCC(C)CCCC(C)C (stereo not drawn) | 31.1 µM | 
Cc1cnc(NCCCN(C)C)c2c1[nH]c1ccc3cc(O)ccc3c12 | 0.806 µM | 

These molecules were tested on MOLT-4 leukemia (assay: NCI-60 cell line screen, 48 h).

Compound | TGI | GI50 [µM]
O=C1/C(=C/c2ccc(O)c(O)c2)CCC/C1=C\c1ccc(O)c(O)c1 | > 44 µM | 
Cc1c(C(=O)C/C(=N/NC(=O)c2ccccc2O)C(=O)Nc2ccccc2C(C)C)[n+](=O)c2ccccc2n1[O-] | 21.9 µM | 
CCCCCCCCCCCC(=O)OCCOCCOCCOCCOCCOCc1ccccc1 | > 100 µM | 
CCCC1C(=O)CCc2c(OC)ccc(OC)c21 (stereo not drawn) | > 100 µM | 
O=C(CCc1nc(=S)[nH][nH]1)Nc1cc(Cl)c(Cl)cc1Cl | > 100 µM | 
O=C(Nc1nc2ccc([N+](=O)[O-])cc2s1)C(=O)C(C1OC(=O)c2ccccc21)[N+](=O)[O-] (stereo not drawn) | > 100 µM | 
O=C(CCc1nc(=S)[nH][nH]1)Nc1ccc(Cl)c(Cl)c1 | > 100 µM | 
COC(=O)C1(C(C)C)CCc2c(OC)ccc(OC)c2C1=O (stereo not drawn) | > 100 µM | 
O=C(Nc1ccccc1)c1c(O)[nH]c(=S)[nH]c1=O | 53.2 µM and 96.4 µM | 40
COC(=O)c1ccccc1NC(=O)C(=O)Cc1nc2c3c(ccc2[nH]c1=O)C(=O)c1ccccc1C3=O | 99.6 µM | 
Cc1ccc(S(=O)(=O)OC[C@@H]2CO2)cc1 | > 100 µM | 
COc1cc2cc(OC)c3cc4c(cc3c2c(OC)c1OC)OCO4 | > 85.8 µM | 
O=C(CC(=O)c1cccc2ccccc12)C(=O)Nc1ccc(Cl)cc1 | > 100 µM | 
CCCCCCCCCCCCCC(=O)OC(/C=C/C(C)C)C(O)C(O)C(OC)C(=O)NC1CCCCN(C)C1=O (stereo not drawn) | 7.54 µM and > 49 µM | 
CC1(C(=O)O)CCC[C@@]2(C)C1CC[C@@]1(C)c3cocc3CCC21 (stereo partly drawn) | > 100 µM | 
CCn1c(C)nn2c(=O)c3ccccc3nc2c1=O | > 100 µM | 
CCOC(=O)CCC1(C(=O)OCC)CCCCC1=O (stereo not drawn) | > 100 µM | 
CCN(CC)CCSc1c2ccccc2nc2cc(NCC(=O)Nc3ccccc3-c3ccccc3NC(=O)CNc3ccc4c(SCCN(CC)CC)c5ccccc5nc4c3)ccc12 | > 76.9 µM | 
Cc1nc2c(ccc3ncccc32)[nH]1 | > 100 µM | 

Compound | TGI | GI50 [µM]
Cc1cc(N(CCC#N)CCC#N)ccc1N=Nc1ccc(S(N)(=O)=O)cc1 | > 100 µM | 
CC1(C)C(=O)/C=C\C(=O)C(C)(C)C2=CC=C(O2)C(C)(C)C(=O)/C=C\C(=O)C(C)(C)C2=CC=C1O2 | > 100 µM | 
NC(=O)NO.O.O.O.O.O.O.O.O.O.O.O.[Ge].[Ge].[Ge].[Ge].[Ge].[O]=[Ge].[O]=[Ge].[O]=[Ge].[O]=[Ge].[O]=[Ge][OH] | > 100 µM | 
CN(C)C(=S)N=C(Nc1ccccc1)Nc1ccccc1 | > 100 µM | 
CCC[CH2][Sn]([CH2]CCC)([S]c1cccc2cccnc12)[S]c1cccc2cccnc12 | 0.397 µM | 0.109
OCC1=CC(NC2CC(CO)C(O)C(O)C2O)C(O)C(O)C1O (stereo not drawn) | > 100 µM | 
Nc1ccccc1S(=O)(=O)N(CC(=O)O)c1ccccc1 | > 100 µM | 
CCOC(=O)C(C)(C)Oc1ccc2c(-c3ccccc3)cc(=O)oc2c1 | 54.6 µM | 
CNS(=O)(=O)NNS(=O)(=O)c1ccccc1 | > 100 µM | 
Cc1cc(NS(=O)(=O)c2ccc(Nc3c4ccccc4nc4c(C(=O)N5CCN(CCOS(C)(=O)=O)CC5)cccc34)cc2)no1 | > 100 µM | 
O=C(O)CCC(NC(=O)c1ccc(Nc2nc3ccccc3nc2-c2cccs2)cc1)C(=O)O (stereo not drawn) | > 100 µM | 
NC1=NCCC1(c1ccccc1)c1ccccn1 (stereo not drawn) | > 100 µM | 
CNC(=S)OCCC(C)CCCC(C)C (stereo not drawn) | 27.1 µM | 
Nc1ccccc1C#C/C=C\C#Cc1ccccc1OC(F)(F)F | 24.1 µM | 2.91
COC(=O)/C(C#N)=C1\NC(=O)c2ccccc21 | > 100 µM | 
Cc1ccc(NC(=O)Nc2ccc(-c3cccnc3)cc2N2CCC(CO)CC2)cc1 | > 100 µM | 3.02
Cc1cnc(NCCCN(C)C)c2c1[nH]c1ccc3cc(O)ccc3c12 | 0.534 µM | 
Fc1ccc(NC(=S)SCc2ccc3c(c2)OCO3)cc1F | 39.8 µM | 

The molecules below were run on CCRF-CEM leukemia (assay: NCI-60 cell line screen, 48 h).

Compound | TGI [µM]
O=C1/C(=C/c2ccc(O)c(O)c2)CCC/C1=C\c1ccc(O)c(O)c1 | > 25.4
Cc1c(C(=O)C/C(=N/NC(=O)c2ccccc2O)C(=O)Nc2ccccc2C(C)C)[n+](=O)c2ccccc2n1[O-] | 28.8
CCCCCCCCCCCC(=O)OCCOCCOCCOCCOCCOCc1ccccc1 | > 100
CCCC1C(=O)CCc2c(OC)ccc(OC)c21 (stereo not drawn) | > 100
O=C(CCc1nc(=S)[nH][nH]1)Nc1cc(Cl)c(Cl)cc1Cl | > 100
O=C(Nc1nc2ccc([N+](=O)[O-])cc2s1)C(=O)C(C1OC(=O)c2ccccc21)[N+](=O)[O-] (stereo not drawn) | > 100
O=C(CCc1nc(=S)[nH][nH]1)Nc1ccc(Cl)c(Cl)c1 | > 100
COC(=O)C1(C(C)C)CCc2c(OC)ccc(OC)c2C1=O (stereo not drawn) | > 100
